Test results taken from patent publication US8859569B2, “Substituted annellated pyrimidines and use thereof” (Bayer Pharma Aktiengesellschaft, priority 2011, dated 2014).
pIC50: −log10 of the molar value. One block for each molecule: values may come before it.

Legend:
[1] = target: T1, human phosphodiesterase 5 (PDE-5) (Homo sapiens, UniProt O76074); test: Inhibition of human phosphodiesterase 5 (PDE-5), SPA assay; type: biochemical; conditions: PDE-5 preparation from human platelets, [8-3H]cGMP substrate
T1 construct: PDE-5 preparations are obtained from human platelets by lysis; from tissue; host or cells: human platelets
Method: B-6. Inhibition of Human Phosphodiesterase 5 (PDE-5)
PDE-5 preparations are obtained from human platelets by lysis (Microfluidizer®, 800 bar, 3 passages), followed by centrifugation (75000 g, 60 min, 4° C.) and ion-exchange chromatography of the supernatant on a Mono Q 10/10 column (linear sodium chloride gradient, elution with a 0.2-0.3M solution of sodium chloride in buffer (20 mM Hepes pH 7.2, 2 mM magnesium chloride). Fractions that have PDE-5 activity are combined (PDE-5 preparation) and stored at −80° C.
For determining their in-vitro action on human PDE-5, the test substances are dissolved in 100% DMSO and serial dilutions are prepared. Typically, dilution series (1:3) from 200 μM to 0.091 μM are prepared (resultant final concentrations in the test: 4 μM to 0.0018 μM). In each case 2 μL of the diluted solutions of the substance are put in the wells of microtitre plates (Isoplate-96/200W; Perkin-Elmer). Then 50 μL of a dilution of the PDE-5 preparation described above is added. The dilution of the PDE-5 preparation is selected so that during subsequent incubation less than 70% of the substrate is reacted (typical dilution: 1:100; dilution buffer: 50 mM Tris/hydrochloric acid pH 7.5, 8.3 mM magnesium chloride, 1.7 mM EDTA, 0.2% BSA). The substrate [8-^3H]cyclic guanosine-3′,5′-monophosphate (1 μCi/μL; Perkin-Elmer) is diluted 1:2000 with assay buffer (50 mM Tris/hydrochloric acid pH 7.5, 8.3 mM magnesium chloride, 1.7 mM EDTA) to a concentration of 0.0005 μCi/μL. The enzyme reaction is finally started by adding 50 μL (0.025 μCi) of the diluted substrate. The test preparations are incubated for 60 min at room temperature and the reaction is stopped by adding 25 μL of a suspension of 18 mg/mL of Yttrium Scintillation Proximity Beads in water (phosphodiesterase beads for SPA assays, RPNQ 0150, Perkin-Elmer). The microtitre plates are sealed with film and left to stand for 60 min at room temperature. Then the plates are measured for 30 s per well in a Microbeta scintillation counter (Perkin-Elmer). IC50 values are determined on the basis of the graphs plotted of the substance concentration versus the percentage PDE-5 inhibition.

[2] = target: T2, recombinant guanylate cyclase reporter cell line (Rattus norvegicus, UniProt P19686+P20595); test: Action on recombinant guanylate cyclase reporter cell line; type: cell-based
T2 construct: expressed in transfected cells
T2 sequence (P20595 1-619): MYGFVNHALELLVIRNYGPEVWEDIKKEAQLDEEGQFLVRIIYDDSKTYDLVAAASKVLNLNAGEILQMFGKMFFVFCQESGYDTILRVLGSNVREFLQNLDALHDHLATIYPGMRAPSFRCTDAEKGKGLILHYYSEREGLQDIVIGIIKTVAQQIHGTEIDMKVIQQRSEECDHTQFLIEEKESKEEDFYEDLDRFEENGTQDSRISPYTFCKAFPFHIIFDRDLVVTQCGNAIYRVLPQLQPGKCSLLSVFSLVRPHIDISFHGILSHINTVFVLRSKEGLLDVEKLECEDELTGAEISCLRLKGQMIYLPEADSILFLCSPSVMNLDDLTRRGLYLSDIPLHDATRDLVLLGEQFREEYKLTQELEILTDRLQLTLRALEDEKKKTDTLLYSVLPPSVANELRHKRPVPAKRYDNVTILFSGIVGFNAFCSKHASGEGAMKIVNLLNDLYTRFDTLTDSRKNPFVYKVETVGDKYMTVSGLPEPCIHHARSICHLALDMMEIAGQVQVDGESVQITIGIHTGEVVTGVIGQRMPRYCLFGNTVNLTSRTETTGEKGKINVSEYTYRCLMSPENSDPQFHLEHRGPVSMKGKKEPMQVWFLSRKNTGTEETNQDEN
T2 sequence (P19686 1-690): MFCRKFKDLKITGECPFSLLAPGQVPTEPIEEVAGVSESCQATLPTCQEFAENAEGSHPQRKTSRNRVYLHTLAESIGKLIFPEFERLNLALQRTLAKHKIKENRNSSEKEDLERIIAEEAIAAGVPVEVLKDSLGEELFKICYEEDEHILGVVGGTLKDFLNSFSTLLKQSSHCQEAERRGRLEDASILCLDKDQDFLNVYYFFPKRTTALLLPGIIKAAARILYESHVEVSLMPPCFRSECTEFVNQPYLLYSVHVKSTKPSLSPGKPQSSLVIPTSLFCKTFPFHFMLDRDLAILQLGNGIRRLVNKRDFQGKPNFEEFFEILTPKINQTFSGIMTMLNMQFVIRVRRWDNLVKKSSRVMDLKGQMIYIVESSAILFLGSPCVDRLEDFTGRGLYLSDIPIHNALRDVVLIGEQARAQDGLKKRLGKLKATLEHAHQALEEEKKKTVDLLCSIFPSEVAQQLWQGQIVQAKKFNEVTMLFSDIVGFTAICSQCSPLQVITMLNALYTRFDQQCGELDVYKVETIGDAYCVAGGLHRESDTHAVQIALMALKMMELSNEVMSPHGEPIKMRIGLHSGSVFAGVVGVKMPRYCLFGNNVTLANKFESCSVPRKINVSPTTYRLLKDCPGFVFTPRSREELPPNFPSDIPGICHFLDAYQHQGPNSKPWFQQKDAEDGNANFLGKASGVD
Method: B-2. Action on Recombinant Guanylate Cyclase Reporter Cell Line
The cellular action of the compounds according to the invention is determined on a recombinant guanylate cyclase reporter cell line, as described in F. Wunder et al., Anal. Biochem. 339, 104-112 (2005).

pIC50 [1]: 6.37
MEC (minimal effective concentration) [2]: 0.1 μm
Structure (SMILES): CC1(C)C(=O)Nc2nc(-c3nn(Cc4ccccc4F)c4ncccc34)nc(Nc3cccnc3)c21 [Example 65, 2-[1-(2-fluorobenzyl)-1H-pyrazolo[3,4-b]pyridin-3-yl]-5,5-dimethyl-4-(pyridin-3-ylamino)-5,7-dihydro-6H-pyrrolo[2,3-d]pyrimidin-6-one]

pIC50 [1]: 7.80
MEC (minimal effective concentration) [2]: 0.1 μm
Structure (SMILES): CC1(C)C(=O)Nc2nc(-c3nn(Cc4ccccc4F)c4ncccc34)nc(NC[C@H]3CNC(=O)C3)c21 [Example 66, 2-[1-(2-fluorobenzyl)-1H-pyrazolo[3,4-b]pyridin-3-yl]-5,5-dimethyl-4-{[(5-oxopyrrolidin-3-yl)methyl]amino}-5,7-dihydro-6H-pyrrolo[2,3-d]pyrimidin-6-one]

pIC50 [1]: 7.46
MEC (minimal effective concentration) [2]: 0.1 μm
Structure (SMILES): CC1(C)CCN(c2nc(-c3nn(Cc4ccccc4F)c4ncccc34)nc3c2C(C)(C)C(=O)N3)CC1 [Example 68, 4-(4,4-dimethylpiperidin-1-yl)-2-[1-(2-fluorobenzyl)-1H-pyrazolo[3,4-b]pyridin-3-yl]-5,5-dimethyl-5,7-dihydro-6H-pyrrolo[2,3-d]pyrimidin-6-one]

pIC50 [1]: 7.34
MEC (minimal effective concentration) [2]: 0.3 μm
Structure (SMILES): CC1(C)C(=O)Nc2nc(-c3nn(Cc4ccccc4F)c4ncccc34)nc(Nc3ccncc3)c21 [Example 69, 2-[1-(2-fluorobenzyl)-1H-pyrazolo[3,4-b]pyridin-3-yl]-5,5-dimethyl-4-(pyridin-4-ylamino)-5,7-dihydro-6H-pyrrolo[2,3-d]pyrimidin-6-one]

pIC50 [1]: 7.10
MEC (minimal effective concentration) [2]: 0.03 μm
Structure (SMILES): CN1CCN(c2nc(-c3nn(Cc4ccccc4F)c4ncccc34)nc3c2C(C)(C)C(=O)N3)CC1 [Example 70, 2-[1-(2-fluorobenzyl)-1H-pyrazolo[3,4-b]pyridin-3-yl]-5,5-dimethyl-4-(4-methylpiperazin-1-yl)-5,7-dihydro-6H-pyrrolo[2,3-d]pyrimidin-6-one]

pIC50 [1]: 7.38
MEC (minimal effective concentration) [2]: 0.01 μm
Structure (SMILES): CCOCCCNc1nc(-c2nn(Cc3ccccc3F)c3ncccc23)nc2c1C(C)(C)C(=O)N2 [Example 71, 4-[(3-ethoxypropyl)amino]-2-[1-(2-fluorobenzyl)-1H-pyrazolo[3,4-b]pyridin-3-yl]-5,5-dimethyl-5,7-dihydro-6H-pyrrolo[2,3-d]pyrimidin-6-one]

pIC50 [1]: 6.96
MEC (minimal effective concentration) [2]: 0.1 μm
Structure (SMILES): CC1(C)C(=O)Nc2nc(-c3nn(Cc4ccccc4F)c4ncccc34)nc(N3CCOCC3)c21 [Example 72, 2-[1-(2-fluorobenzyl)-1H-pyrazolo[3,4-b]pyridin-3-yl]-5,5-dimethyl-4-(morpholin-4-yl)-5,7-dihydro-6H-pyrrolo[2,3-d]pyrimidin-6-one]

pIC50 [1]: 7.80
MEC (minimal effective concentration) [2]: 0.3 μm
Structure (SMILES): CC1(C)C(=O)Nc2nc(-c3nn(Cc4ccccc4F)c4ncccc34)nc(NCCC(N)=O)c21 [Example 73, N^3-{2-[1-(2-fluorobenzyl)-1H-pyrazolo[3,4-b]pyridin-3-yl]-5,5-dimethyl-6-oxo-6,7-dihydro-5H-pyrrolo[2,3-d]pyrimidin-4-yl}-beta-alaninamide]

Continued, molecule first:

Structure (SMILES): COCCNc1nc(-c2nn(Cc3ccccc3F)c3ncccc23)nc2c1C(C)(C)C(=O)N2 [Example 56, 2-[1-(2-fluorobenzyl)-1H-pyrazolo[3,4-b]pyridin-3-yl]-4-[(2-methoxyethyl)amino]-5,5-dimethyl-5,7-dihydro-6H-pyrrolo[2,3-d]pyrimidin-6-one]
pIC50 [1]: 7.47
MEC (minimal effective concentration) [2]: 0.03 μm

Structure (SMILES): CC1(C)C(=O)Nc2nc(-c3nn(Cc4ccccc4F)c4ncccc34)nc(NCCn3cccn3)c21 [Example 58, 2-[1-(2-fluorobenzyl)-1H-pyrazolo[3,4-b]pyridin-3-yl]-5,5-dimethyl-4-{[2-(1H-pyrazol-1-yl)ethyl]amino}-5,7-dihydro-6H-pyrrolo[2,3-d]pyrimidin-6-one]
pIC50 [1]: 6.57
MEC (minimal effective concentration) [2]: 0.03 μm

Structure (SMILES): Cn1cc(CNc2nc(-c3nn(Cc4ccccc4F)c4ncccc34)nc3c2C(C)(C)C(=O)N3)cn1 [Example 59, 2-[1-(2-fluorobenzyl)-1H-pyrazolo[3,4-b]pyridin-3-yl]-5,5-dimethyl-4-{[(1-methyl-1H-pyrazol-4-yl)methyl]amino}-5,7-dihydro-6H-pyrrolo[2,3-d]pyrimidin-6-one]
pIC50 [1]: 8.10
MEC (minimal effective concentration) [2]: 0.1 μm

Structure (SMILES): Cn1ccnc1CNc1nc(-c2nn(Cc3ccccc3F)c3ncccc23)nc2c1C(C)(C)C(=O)N2 [Example 60, 2-[1-(2-fluorobenzyl)-1H-pyrazolo[3,4-b]pyridin-3-yl]-5,5-dimethyl-4-{[(1-methyl-1H-imidazol-2-yl)methyl]amino}-5,7-dihydro-6H-pyrrolo[2,3-d]pyrimidin-6-one]
pIC50 [1]: 6.37
MEC (minimal effective concentration) [2]: 0.3 μm

Structure (SMILES): CCN(CCOC)c1nc(-c2nn(Cc3ccccc3F)c3ncccc23)nc2c1C(C)(C)C(=O)N2 [Example 61, 4-[ethyl(2-methoxyethyl)amino]-2-[1-(2-fluorobenzyl)-1H-pyrazolo[3,4-b]pyridin-3-yl]-5,5-dimethyl-5,7-dihydro-6H-pyrrolo[2,3-d]pyrimidin-6-one]
pIC50 [1]: 7.00
MEC (minimal effective concentration) [2]: 0.03 μm

Structure (SMILES): Cc1nccn1-c1nc(-c2nn(Cc3ccccc3F)c3ncccc23)nc2c1C(C)(C)C(=O)N2 [Example 62, 2-[1-(2-fluorobenzyl)-1H-pyrazolo[3,4-b]pyridin-3-yl]-5,5-dimethyl-4-(2-methyl-1H-imidazol-1-yl)-5,7-dihydro-6H-pyrrolo[2,3-d]pyrimidin-6-one]
pIC50 [1]: 6.32
MEC (minimal effective concentration) [2]: 0.1 μm

Structure (SMILES): CC(C)CCNc1nc(-c2nn(Cc3ccccc3F)c3ncccc23)nc2c1C(C)(C)C(=O)N2 [Example 63, 2-[1-(2-fluorobenzyl)-1H-pyrazolo[3,4-b]pyridin-3-yl]-5,5-dimethyl-4-[(3-methylbutyl)amino]-5,7-dihydro-6H-pyrrolo[2,3-d]pyrimidin-6-one]
pIC50 [1]: 6.64
MEC (minimal effective concentration) [2]: 0.03 μm

Structure (SMILES): CC1(C)C(=O)Nc2nc(-c3nn(Cc4ccccc4F)c4ncccc34)nc(N3CCCC3)c21 [Example 64, 2-[1-(2-fluorobenzyl)-1H-pyrazolo[3,4-b]pyridin-3-yl]-5,5-dimethyl-4-(pyrrolidin-1-yl)-5,7-dihydro-6H-pyrrolo[2,3-d]pyrimidin-6-one]
pIC50 [1]: 6.01
MEC (minimal effective concentration) [2]: 0.1 μm
